This is an account of results in ChEMBL document CHEMBL3507680, “University of Dundee, Gates Library screen for HepG2 cell viability”.

The nature of the data set: Human HepG2 cell viability assay in 384 well format. The settings on record: HepG2 cells, read-out: Inhibition. More on the design: dose 125 nL, time 70.5 hour; concentration not given beside the values. The data set is classed as toxicity, cell-based.

Each structure is given as a SMILES string.

On to `Cc1ccsc1CN1CCC(c2cc(C(C)C)n[nH]2)CC1`, for which the cytotoxicity at 70.5 h was -3.28%.

In the case of `CCc1ccc(-c2cn3c(C(=O)N[C@H](C(N)=O)[C@@H](C)O)csc3n2)cc1`, the cytotoxicity at 70.5 h was found to be 15.1%.

`CC(=O)C1(c2ccccc2)CCN(C(=O)C2CNCCO2)CC1` (stereo not drawn): the cytotoxicity at 70.5 h is -7.25%.

On to `CC(C)CN1CCCC1c1ccc(C(=O)Nc2ccc3[nH]nnc3c2)s1` (stereo not drawn), for which the cytotoxicity at 70.5 h was -0.75%.

Take `CN1[C@H]2CC[C@@H]1CN(C(=O)c1sccc1S(N)(=O)=O)CC2`: the cytotoxicity at 70.5 h was -4.92%.

Turning to `COc1cccc(O)c1CN1CCCC(Nc2cccc(F)c2)C1` (stereo not drawn), the cytotoxicity at 70.5 h was 0.789%.

As to `CCSc1ncc(CN2CC[C@@](O)(COC)C(C)(C)C2)cn1`, the cytotoxicity at 70.5 h is -18.2%.

As for `COCCn1ccnc1C1CCCN(C(=O)c2ccccc2C#N)C1` (stereo not drawn), the cytotoxicity at 70.5 h amounted to 0.955%.

In the case of `Cc1noc(C)c1CCCNC(=O)Nc1ccc2c(c1)CC(=O)N2`, the cytotoxicity at 70.5 h is -8.94%.

Consider `CCCc1cncnc1N1CCCC2(CCC(=O)N(C3CCCC3)C2)C1` (stereo not drawn), for which the cytotoxicity at 70.5 h is -9.78%.

Turning to `CSCC(=O)N1CCCN(c2ccncc2C)CC1`, the cytotoxicity at 70.5 h is -8.19%.

Take `Cc1ccc(C(=O)N2CCC3(CC2)c2ccccc2[C@@H](N)[C@@H]3O)cc1F`: the cytotoxicity at 70.5 h was -10.1%.

As to `O=C1N(C2CCOCC2)CCCC12CCN(c1ncccc1Cl)C2` (stereo not drawn), the cytotoxicity at 70.5 h was -14.5%.

`Cc1ccn(CC(=O)N2CC[C@@H](c3ccc4ccccc4c3)[C@H](O)C2)n1`: the cytotoxicity at 70.5 h is -10.1%.

In the case of `Cc1nc[nH]c1C(=O)N1CC[C@@H](NC(=O)c2ccccn2)[C@H](O)C1`, the cytotoxicity at 70.5 h was -1.79%.

Turning to `CNc1cc(C(=O)N(C)Cc2cc(-c3cccs3)n[nH]2)ccn1`, the cytotoxicity at 70.5 h is 0.513%.

For the molecule `CCc1cc(C(=O)NCC2CCN(Cc3cccc(C)n3)C2)on1` (stereo not drawn), the cytotoxicity at 70.5 h is -1.06%.

For the molecule `FC(F)(F)c1ccnc(N2CCCN(Cc3ccccn3)CC2)n1`, the cytotoxicity at 70.5 h turned out to be 11.3%.

As to `Cc1ccc(O)c(C(=O)N2C[C@@H](C(=O)O)[C@H](c3ccccc3)C2)c1`, the cytotoxicity at 70.5 h amounted to 0.313%.

For the molecule `CN(CCCC1CCCO1)S(=O)(=O)NCc1ccccc1` (stereo not drawn), the cytotoxicity at 70.5 h was determined as 10.8%.

As to `CCCc1cc(N2CCC(NCCc3ccc(O)cc3)CC2)nc(C)n1`, the cytotoxicity at 70.5 h was -4.92%.

On to `CCNC(=O)[C@@H]1C[C@H](N)CN1C(=O)c1cccc(CCC(C)(C)O)c1`, for which the cytotoxicity at 70.5 h was -5.42%.

Turning to `O=C(c1cncc(N2CCCC3(CCNCC3)CC2)n1)N1CCCCC1`, the cytotoxicity at 70.5 h was 8.06%.

Take `Cn1ncnc1-c1ccnc(N2CCC(C(O)c3cccs3)CC2)n1` (stereo not drawn): the cytotoxicity at 70.5 h was -10.9%.

For `N#CC1(c2ccccc2)CCN(C(=O)C2CCCN(CC(N)=O)C2)CC1` (stereo not drawn), the cytotoxicity at 70.5 h stood at 1.9%.

With `CCC1CN(C(=O)c2cncc(C)c2)CCC(=O)N1Cc1ccccc1` (stereo not drawn), the cytotoxicity at 70.5 h is -3.22%.

With `O=C(NCCC1CN(C2CCCC2)CCO1)c1c[nH]c(=O)[nH]c1=O` (stereo not drawn), the cytotoxicity at 70.5 h was -12.3%.

On to `c1cc(-c2cn[nH]c2)ccc1CN1CCCCC1`, for which the cytotoxicity at 70.5 h was 13.1%.

For `CC(C)=CCC1(CO)CCCN(Cc2nccs2)C1` (stereo not drawn), the cytotoxicity at 70.5 h was -9.67%.

On to `CCCSCC(=O)N1CCCC(c2nccn2Cc2ccncc2)C1` (stereo not drawn), for which the cytotoxicity at 70.5 h was 25.6%.

Regarding `COC(=O)c1cc(OCC2CCC2)cc(C(=O)N[C@@H](C)CO)c1`, the cytotoxicity at 70.5 h was -22.2%.

Turning to `CCN(CC1CCCN(CCc2cccc(OC)c2)C1)C(=O)CN(C)C` (stereo not drawn), the cytotoxicity at 70.5 h was -0.489%.

For `Clc1cccc(-c2cccc(N3CCC(NC4CCOCC4)CC3)c2)c1`, the cytotoxicity at 70.5 h was determined as 5.92%.

Turning to `CCc1nnc(CNC(=O)CCN2CCN(c3cccc(C)c3)CC2)s1`, the cytotoxicity at 70.5 h is -4.25%.

For the molecule `Cc1ccc(CSc2nc(N)cc(NCC(=O)N3CCNCC3)n2)cc1`, the cytotoxicity at 70.5 h was -4.01%.

`O=C(COc1ccc2cccnc2c1)N1CCN[C@H]2CS(=O)(=O)C[C@H]21`: the cytotoxicity at 70.5 h was found to be 18.5%.

For the molecule `CN(CCO)c1nc(-c2ccccn2)nc2c1CCNC2`, the cytotoxicity at 70.5 h is -0.45%.

Turning to `Cc1ccccc1-n1c(C)cc(=O)[nH]c1=O`, the cytotoxicity at 70.5 h was 26.3%.

Turning to `CSCc1noc(CN2CC(Cc3ccccc3)CC2=O)n1` (stereo not drawn), the cytotoxicity at 70.5 h was -13%.

`CC(C)CN1CC2(CCN(C(=O)c3cn4cccnc4n3)CC2)CC1=O`: the cytotoxicity at 70.5 h was -17.9%.

For the molecule `Cc1ccc(CN2CCN(C(=O)c3ccc(CO)cc3)C(C)C2=O)cc1` (stereo not drawn), the cytotoxicity at 70.5 h was -17.6%.

For `CCc1nnc(CN2CCC3(CC2)Nc2ccccc2NC3=O)o1`, the cytotoxicity at 70.5 h was found to be 19.8%.

Consider `Cc1nc(C(C)C)ncc1C(=O)N1CCCC(N2CCCC2)C1` (stereo not drawn), for which the cytotoxicity at 70.5 h was found to be 6.69%.

For `c1cc(C2CCN(c3ncnc4c3CCNCC4)CC2)ccn1`, the cytotoxicity at 70.5 h was -10.9%.

With `CSc1ccccc1C(=O)N1CCN(C)C2(CCC(=O)N(C)CC2)C1` (stereo not drawn), the cytotoxicity at 70.5 h was -14.6%.

For the molecule `Cc1nc(C2CCN(C[C@H](C)CO)CC2)cc(N2CCOCC2)n1`, the cytotoxicity at 70.5 h is -0.547%.

Consider `O=C(NCc1ccc2nonc2c1)C1CCN(C(=O)C2CCC2)CC1`, for which the cytotoxicity at 70.5 h is -6.22%.

`Cc1nn(C)cc1-c1ccnc(N2CCCN(CC(C)C)CC2)n1`: the cytotoxicity at 70.5 h is -6.83%.

For `CN1CCc2[nH]cnc2C12CCN(Cc1ccc(S(C)(=O)=O)cc1)CC2`, the cytotoxicity at 70.5 h is -7.39%.

Take `c1ccc(-c2cccc(-c3ccn(CCN4CCCCC4)n3)c2)nc1`: the cytotoxicity at 70.5 h was found to be 13.3%.

For `COCC[C@]1(O)CCN(CC(=O)NCc2ccccc2C)C[C@H]1C`, the cytotoxicity at 70.5 h is -2.23%.

Regarding `NC(=O)C1CCCN(C(=O)c2ccc(-n3ccnc3)cc2)C1` (stereo not drawn), the cytotoxicity at 70.5 h is -5.88%.

In the case of `CCC[C@H]1CN(Cc2cc(C)no2)C[C@@H]1NC(=O)C1(COC)CCC1`, the cytotoxicity at 70.5 h was -10%.

As to `Cc1nc2ccccc2n1Cc1cc(C(=O)N(C)C2CCOC2)n[nH]1` (stereo not drawn), the cytotoxicity at 70.5 h is -12.8%.

Regarding `CC(C)NC(=O)c1nc(Cn2c(C(F)(F)F)nc3ccccc32)no1`, the cytotoxicity at 70.5 h amounted to 14.5%.

Regarding `CC(C)N1CC2(CCC1=O)CCN(C(=O)c1cccc(F)c1F)CC2`, the cytotoxicity at 70.5 h is -5.47%.

Regarding `COCCNc1nc2c(c(N3CCn4nc(C)cc4C3)n1)CCNCC2`, the cytotoxicity at 70.5 h is -8.96%.

Turning to `CN(C)c1ncc2c(n1)CCCC2NC(=O)c1ccsc1` (stereo not drawn), the cytotoxicity at 70.5 h is -3.74%.

Turning to `Cc1cc(C)nc(CNC(=O)C(c2cccnc2)N2CCOCC2)n1` (stereo not drawn), the cytotoxicity at 70.5 h is -6.63%.

With `CN(Cc1ccc(OCC(=O)N2CCOCC2)cc1)S(C)(=O)=O`, the cytotoxicity at 70.5 h was determined as 2.5%.

With `CC(C)[C@H]1COC(=O)N1CC(=O)N1CCN(C(=O)c2ccco2)CC1`, the cytotoxicity at 70.5 h came out at 8.43%.

In the case of `CC(C)c1cc(C(=O)N2C[C@@H](C)[C@](O)(C3CC3)C2)[nH]n1`, the cytotoxicity at 70.5 h was -5.59%.

With `COc1ccc(Cl)cc1C(=O)N1C[C@@H](NC(=O)N(C)C)[C@H](C(C)C)C1`, the cytotoxicity at 70.5 h was -10.5%.

For the molecule `COC(=O)N1CCN(Cc2ccccc2Cl)CC1`, the cytotoxicity at 70.5 h is -1.89%.

Turning to `O=C(c1cc(Br)ccc1Cl)N1CCN(Cc2ccco2)CC1`, the cytotoxicity at 70.5 h was -4.63%.

With `Cc1ccc(-c2c(C(=O)NC3CCN(C)CC3)csc2C)cc1`, the cytotoxicity at 70.5 h is -9.95%.

For the molecule `CCc1ccc(C(=O)N2CCN(Cc3ccc(F)cc3)CC2)s1`, the cytotoxicity at 70.5 h was 4.63%.

In the case of `CNc1cc(C)nc(N2CCC3(CC2)[C@H](O)C[C@@H]3OC)n1`, the cytotoxicity at 70.5 h is -2.45%.

In the case of `O=C(Cc1ccccc1F)NCCN1CCOCC1`, the cytotoxicity at 70.5 h was -6.95%.

With `Cc1ccc(CN2CCN(C(=O)c3ccc(Br)o3)CC2)cc1`, the cytotoxicity at 70.5 h was 27.9%.

In the case of `COc1ccc(-c2nc(CN(C)Cc3nncn3C)c(C)o2)c(C)c1C`, the cytotoxicity at 70.5 h stood at 5.19%.

Turning to `COCCC1CCN([C@@H]2c3ccccc3C3(CCNCC3)[C@H]2O)CC1`, the cytotoxicity at 70.5 h is -3.9%.

With `NCCc1n[nH]c(=O)n1-c1cccc2ccccc12`, the cytotoxicity at 70.5 h is -4.93%.

Take `O=C1OC2(CCNCC2)CN1CC(=O)N1CCCC1c1nccs1` (stereo not drawn): the cytotoxicity at 70.5 h was -7.02%.

As to `COCCn1ccnc1CN(Cc1ccccn1)CC(C)C`, the cytotoxicity at 70.5 h is -6.56%.

Regarding `O=C(c1cc(Cn2cnc3ccccc32)on1)N1CCOCC1`, the cytotoxicity at 70.5 h was -17.3%.

For `Cc1c(C(=O)NC2CCCC2)nnn1-c1ccccc1`, the cytotoxicity at 70.5 h was -8.58%.

Take `CCN(CCc1nc2cc(C)ccc2[nH]1)C(=O)[C@@H](N)Cc1c[nH]cn1`: the cytotoxicity at 70.5 h is -11.4%.

`CN(Cc1noc(-c2ccccc2)n1)C(=O)CSc1nnc(N)s1`: the cytotoxicity at 70.5 h was 14.3%.

Take `COc1ccc2c(c1)C(C(=O)N(C)CCCc1nccn1C)CC(=O)N2` (stereo not drawn): the cytotoxicity at 70.5 h worked out at 5.74%.

`COCCn1cncc1Cn1ncc2ccccc2c1=O`: the cytotoxicity at 70.5 h was -4.19%.

As for `CN(CC(=O)Nc1ccon1)S(=O)(=O)c1cc(Cl)ccc1Cl`, the cytotoxicity at 70.5 h turned out to be 23.9%.

Consider `Cc1nc(N2CCC(C(O)c3nccn3C)CC2)c2nc(C)oc2n1` (stereo not drawn), for which the cytotoxicity at 70.5 h was -5.83%.

For `Cc1cccc(-n2c(C)cc(=O)[nH]c2=O)c1C`, the cytotoxicity at 70.5 h is -4.81%.

For `O=C1NCCCC12CCN(c1nc3c(c(C(F)(F)F)n1)CCCC3)C2` (stereo not drawn), the cytotoxicity at 70.5 h was -6%.

`Cc1cc(NC(=O)CCn2cncn2)no1`: the cytotoxicity at 70.5 h was found to be 5.52%.

Take `COC(=O)NCC(=O)N(C)CC1Cc2ccccc2CN1C` (stereo not drawn): the cytotoxicity at 70.5 h was -2.82%.

In the case of `CCN1CCN(S(=O)(=O)c2cnc(NC(C)=O)s2)CC1`, the cytotoxicity at 70.5 h amounted to 17.3%.

For `COc1cc(NC(=O)NCc2ccccn2)cc(OC)c1`, the cytotoxicity at 70.5 h stood at 8.5%.

`Cc1ccccc1CN(CCN(C)C)Cc1ccccc1C(=O)O`: the cytotoxicity at 70.5 h was -7.13%.

As to `Cc1cc(NCCNc2ncccc2C)n2nc(C)cc2n1`, the cytotoxicity at 70.5 h was -15.2%.

Turning to `O=C(N1CCOCC1)N1CCCC1c1nc(-c2ccccn2)no1` (stereo not drawn), the cytotoxicity at 70.5 h is -8.93%.

In the case of `COc1cccc(CC2CN(C3CC(C)(C)NC(C)(C)C3)CCO2)c1` (stereo not drawn), the cytotoxicity at 70.5 h was 50.4%.

For the molecule `CN(Cc1ccccc1Cl)C(=O)c1cc(CN2CCC(O)CC2)on1`, the cytotoxicity at 70.5 h is -17.3%.

Consider `CCc1ccccc1OCCNCCc1c[nH]cn1`, for which the cytotoxicity at 70.5 h was 29.6%.

On to `COc1cccc(-c2ncc(CN3CCOCC(O)C3)s2)c1` (stereo not drawn), for which the cytotoxicity at 70.5 h is -6.59%.

As to `COc1ccc(OCCN2CCCN(Cc3noc(C)n3)CC2)cc1`, the cytotoxicity at 70.5 h was 30.5%.

For the molecule `O=C(NCCn1ccnc1)c1ccn(-c2ccccc2)n1`, the cytotoxicity at 70.5 h was -1.21%.
